Data: US20140275090A1, “BILE ACID RECYCLING INHIBITORS FOR TREATMENT OF PRIMARY SCLEROSING CHOLANGITIS AND INFLAMMATORY BOWEL DISEASE” (Lumena Pharmaceuticals, Inc., priority 2013, published 2014)

How the values were obtained:
serum bile acids = experiment: Inhibition of the postprandial rise in SBA (AUC 0-240 min) in dogs, LUM001 compared to cholestyramine; assay type: in vivo, dog
Procedure: LUM001 was dissolved in 0.2% Tween 80 at concentrations that required the administration of 0.2 ml dosing solution/kg of body weight at each dose tested. Cholestyramine was suspended in water at concentrations that required the administration of 2.5 ml/kg (500 mg/kg) and 1 ml/kg (200 mg/kg). The appropriate volume of solution formulation for each animal was placed into a gelatin capsule, Torpac Inc., size 13, Batch 594, East Hanover, N.J. and administered per os. Test compounds were administered as single oral doses to groups of dogs, 3 to 9 dogs per group at varying dosages. LUM001 was given at 0, 0.02, 0.05, 0.2, 0.6, 2, 5 or 15 mg/kg. Cholestyramine was administered at 200 or 500 mg/kg. […] No dog received any one compound dosage more than once. SBA was measured by an enzymatic assay. SBA values are expressed as μg of total bile acids/ml of serum.

[1] = Toxicokinetics of LUM001 free form, 13-week oral gavage toxicity study in rats; assay type: in vivo; conditions: plasma; rat, after IV administration of 3 mg/kg; read-out: AUC(0-24 h)
[2] = Systemic exposure of LUM001 in patients under 18 years (study NB-00-02-014); assay type: in vivo, human; conditions: QD, day eight
Procedure: LUM001 has been administered to forty patients under the age of 18 years old. […] The drug was administered once-a-day (QD) in the morning for fourteen days. […] These doses are similar to those using to treat patients with PSC-IBD or PSC.

[3] = Toxicokinetics of LUM001 free form, 13-week oral capsule toxicity study in dogs; assay type: in vivo, Beagle dog; conditions: 13-wk dog capsule, 20 mg/kg
Procedure: Six- to seven-month old Beagle dogs of body weights of 4.9-9.5 kg (4/sex/group) orally via capsules at 0, 5, 20 or 100 mg/kg for 13 consecutive weeks. Plasma levels of LUM001 (free form) were evaluated on Days 1 and 91. LUM001 was administered by once daily oral gelatin capsules. […] therefore, 105% of a stated dose is given to provide the appropriate amount of compound for dosing. On study Day 1 and Day 91, approximately 2 mL of venous blood was collected in heparinized tubes from the cephalic vein of each animal at 1, 2, 3, 5, 8, and 24 hours post-dose. Blood collection tubes were mixed and placed on ice during the collection period after which they were centrifuged and the plasma was harvested into cryotubes within approximately 60 minutes of blood collection. Plasma samples were stored at approximately −70° C. or lower until analyzed.
The concentration of LUM001 free form in plasma were determined using an LC/MS/MS method. The assay sensitivity was 5.00 ng/mL for a 100 mL sample.

[4] = system: Hepatic Cholesterol 7α-hydroxylase; experiment: Cholesterol 7-α hydroxylase activity assay, hamster liver microsomes; assay type: in vivo, golden Syrian hamster; conditions: 28 days
Excerpt: Male golden Syrian hamsters (126-147 gm) were obtained from Charles Rivers Laboratories and were single housed in a constant temperature environment with alternating 12-hour light and dark cycles. Hamsters were fed Teklad 7001 rodent meal chow at libitum for two weeks before the experimental studies began and switched to Teklad 7001 rodent meal chow supplemented with 0.24% cholesterol on day one of the 28-day experiment. Water was continuously available to the animals. Hamsters were assigned to groups in a manner that normalized each group by pretreatment body weights. SD-5613 was dissolved in an aqueous solution of 0.2% (w/v) Tween 80 and administered Q.D. by intragastric gavage between 9 a.m. and 10 a.m. each morning using a syringe fitted with a flexible feeding tube. Blood samples were collected after 14- and 28-day treatment periods by orbital sinus and cardiac puncture, respectively. Hamsters were anesthetized but not fasted prior to blood collections. Fecal samples were collected during a 48-hour period at the end of days 14 and 28 (i.e. days 13-14 and 27-28). Hamsters were sacrificed using carbon dioxide asphyxiation to obtain the following tissue samples: liver, kidneys, colon and cecum.
Homogenates of three gram liver tissue samples were prepared in 25 ml homogenization buffer [0.1 M potassium phosphate buffer, pH 7.2, containing 0.1 M sucrose, 50 mM KCl, 50 mM NaF, 5 mM ethylene glycol-bis(β-aminoethyl ether)-N,N,N′,N′-tetraacetic acid (EGTA), 1 mM EDTA, 3 mM dithiothreitol (DTIT), and 1 mM phenylmethylsulfonyl fluoride (PMSF)]. A microsomal fraction was prepared by centrifugation at 10,000×g for ten minutes. The supernatant was subjected to centrifugation at 105,000×g for two hours. The microsomal fraction was resuspended in a 0.1 M Na tetrapyrophosphate buffer (pH 10), with 50 mM NaF, and 1 mM EDTA, and subjected to centrifugation for one hour at 105,000×g. The microsomal fraction was resuspended in the homogenization buffer, and assayed for protein content by Coomassie Protein Plus Assay reagent.
Liver microsomes (1 mg) or 7-α-hydroxycholesterol standard solutions were preincubated for five minutes at 37° C. in a rocking water bath with 500 μl 5× buffer, 1.7 ml water, and 50 μl 0.1% (w/v) cholesterol as substrate in excess. The 5× buffer consists of 0.42 M Na2HPO4, 0.25 mM NaF, 0.08 M KH2PO4, 5 mM EDTA and 10 mM DTT. The reaction tubes were incubated at 37° C. in a rocking water bath throughout the remainder of the assay protocol, with cessation of rocking only for the period of time needed to add solutions. After the preincubation period, 250 μl of 10 mM NADPH was added and incubated for 5 minutes to allow enzymatic conversion of the cholesterol substrate to 7-α-hydroxycholesterol by endogenous 7-α-hydroxylase. The reaction was stopped by addition of 75 μl of 20% sodium cholate. After four minutes, 25 μl of 100 μM 20-α-hydroxycholesterol was added to each tube as an internal recovery standard. The tubes were allowed to rock briefly in the water bath to mix, then 40 μl of 25 U/ml cholesterol oxidase was added and the tubes were incubated for ten minutes to convert 7-α-hydroxycholesterol and 20-α-hydroxycholesterol to their ketone forms, 7-α-hydroxycholesten-3-one and 20-α-hydroxycholesten-3-one. After the enzymatic reactions were completed, the ketone products were isolated by four sequential extractions in 20, 10, 10 and 10 ml petroleum ether, respectively. The collected volumes were evaporated to dryness under a flow of nitrogen gas between each extraction step using a heat block set at 50° C. The final dried samples were resuspended in 125 μl mobile phase solution consisting of 70:30 acetonitrile/methanol for analysis by reversed phase HPLC. Chromatography was performed on a 4.6×250 mm Beckman Ultrosphere ODS reverse phase column in mobile phase solution. […]

CCCCC1(CCCC)CS(=O)(=O)c2ccc(N(C)C)cc2[C@@H](c2ccc(OCc3ccc(C[N+]45CCN(CC4)CC5)cc3)cc2)[C@H]1O [LUM001]
inhibition of postprandial serum bile acids AUC compared to cholestyramine (serum bile acids; cholestyramine 200 or 500 mg/kg, AUC 0-240 min): superior inhibition
effect on serum bile acids (serum bile acids; single oral doses 0.02-15 mg/kg): significantly decreased
AUC(0-t) [1]: 4320 ng·h/mL
systemic exposure [2]: minimally absorbed
Cmax ([3]; Day 1, Comb): 25.1 ng/mL
Cmax ([3]; Day 91, F): 25.0 ng/mL
Hepatic Cholesterol 7α-hydroxylase ([4]; 5 mg/kg/day): 50.9 ± 4.8 pmol/mg-port/min
Hepatic Cholesterol 7α-hydroxylase, % change from vehicle group ([4]; 5 mg/kg/day): (+52) %
Hepatic Cholesterol 7α-hydroxylase ([4]; 15 mg/kg/day): 56.5 ± 4.5 pmol/mg-port/min
Hepatic Cholesterol 7α-hydroxylase, % change from vehicle group ([4]; 15 mg/kg/day): (+69) %
Hepatic Cholesterol 7α-hydroxylase ([4]; 50 mg/kg/day): 63.8 ± 5.6 pmol/mg-port/min
Hepatic Cholesterol 7α-hydroxylase, % change from vehicle group ([4]; 50 mg/kg/day): (+90) %
